Read-outs that look alike come from different tables or passages of the source.
Legend:
[1] = biological target: T1, JNK1 (Homo sapiens, UniProt P45983); experiment: KINOMEscan ATP site-dependent binding assay, JNK1; details: mixture of E/Z isomers, read-out: Binding affinity JNK1 Kd
T1 construct: purchased Eurofins Pharma Discovery (KINOMEscan platform)
Method: (§1) Selected compounds were submitted for dissociation constant (Kd) determination using the KINOMEscan platform (Eurofins Pharma Discovery, San Diego, CA, United States), as described previously ([Karaman et al., 2008]). […] Primary screening at fixed concentrations of compounds was performed in duplicate.

[2] = biological target: T2, JNK2 (Homo sapiens, UniProt P45984); experiment: KINOMEscan ATP site-dependent binding assay, JNK2; details: mixture of E/Z isomers, read-out: Binding affinity JNK2 Kd
T2 construct: purchased Eurofins Pharma Discovery (KINOMEscan platform)
T2 sequence (P45984 whole entry): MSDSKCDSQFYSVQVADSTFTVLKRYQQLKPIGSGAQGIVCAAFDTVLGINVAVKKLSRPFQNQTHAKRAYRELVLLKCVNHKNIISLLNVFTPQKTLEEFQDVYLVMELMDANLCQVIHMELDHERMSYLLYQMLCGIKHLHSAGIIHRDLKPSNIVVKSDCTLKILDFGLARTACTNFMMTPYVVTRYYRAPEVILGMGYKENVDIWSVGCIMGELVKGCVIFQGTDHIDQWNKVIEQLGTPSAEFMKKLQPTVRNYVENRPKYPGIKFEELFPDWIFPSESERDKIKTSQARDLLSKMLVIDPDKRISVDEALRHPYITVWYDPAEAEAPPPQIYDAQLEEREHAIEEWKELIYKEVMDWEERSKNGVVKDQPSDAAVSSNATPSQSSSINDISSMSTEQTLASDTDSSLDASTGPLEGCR
Method: as §1

[3] = biological target: T3, JNK3 (Homo sapiens, UniProt P53779); experiment: KINOMEscan ATP site-dependent binding assay, JNK3; details: for Kd: KINOMEscan, mixture of E/Z isomers, read-out: Binding affinity JNK3 Kd
T3 construct: purchased Eurofins Pharma Discovery (KINOMEscan platform)
T3 sequence (P53779 whole entry): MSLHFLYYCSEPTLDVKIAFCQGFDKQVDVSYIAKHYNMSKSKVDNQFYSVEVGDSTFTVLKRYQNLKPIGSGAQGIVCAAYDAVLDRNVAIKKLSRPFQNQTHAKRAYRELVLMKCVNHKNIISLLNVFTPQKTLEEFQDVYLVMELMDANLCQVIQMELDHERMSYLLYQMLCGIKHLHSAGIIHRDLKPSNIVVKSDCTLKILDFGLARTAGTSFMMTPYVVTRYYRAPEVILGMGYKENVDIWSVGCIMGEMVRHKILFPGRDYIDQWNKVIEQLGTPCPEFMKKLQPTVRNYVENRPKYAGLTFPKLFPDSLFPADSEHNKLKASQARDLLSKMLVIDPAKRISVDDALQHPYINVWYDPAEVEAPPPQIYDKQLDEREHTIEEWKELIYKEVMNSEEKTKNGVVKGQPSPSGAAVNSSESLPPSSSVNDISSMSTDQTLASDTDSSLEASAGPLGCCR
Method: as §1

[4] = test system: NF-κB/AP-1 transcriptional activity in THP-1Blue cells; experiment: LPS-induced NF-κB/AP-1 alkaline phosphatase reporter assay in THP-1Blue cells; type: cell-based; details: Homo sapiens; LPS 250 ng/ml, 24 h
Method: (§2) All cells were cultured at 37°C in a humidified atmosphere containing 5% CO2. THP-1Blue cells obtained from InvivoGen (San Diego, CA, United States) were cultured in RPMI 1640 medium (Mediatech Inc., Herndon, VA, United States) supplemented with 10% (v/v) fetal bovine serum (FBS), 4.5 g/L glucose, 100 μg/ml streptomycin, 100 U/mL penicillin, 100 μg/ml phleomycin (Zeocin), and 10 μg/ml blasticidin S. Human monocyte-macrophage MonoMac-6 cells (Deutsche Sammlung von Mikroorganismen und Zellkulturen GmbH, Braunschweig, Germany) were grown in RPMI 1640 medium supplemented with 10% (v/v) FBS, 10 μg/ml bovine insulin, 100 μg/ml streptomycin, and 100 U/mL penicillin.
Activation of AP-1/NF-κB was measured using an alkaline phosphatase reporter gene assay in THP1-Blue cells. Human monocytic THP-1Blue cells are stably transfected with a secreted embryonic alkaline phosphatase gene that is under the control of a promoter inducible by AP-1/NF-κB. THP-1Blue cells (2 × 10^5 cells/well) were pretreated with test compound or DMSO (1% final concentration) for 30 min, followed by addition of 250 ng/ml LPS (from Escherichia coli K-235; Sigma Chemical Co., St. Louis, MO, United States) for 24 h, and alkaline phosphatase activity was measured in cell supernatants using QUANTI-Blue mix (InvivoGen) with absorbance at 655 nm and compared with positive control samples (LPS). The concentrations of compound that caused 50% inhibition of the AP-1/NF-κB reporter activity (IC50) were calculated.

[5] = test system: IL-6 production in MonoMac-6 cells; experiment: LPS-induced IL-6 production in MonoMac-6 cells (ELISA); type: cell-based; details: Homo sapiens, MONO-MAC-6; LPS 250 ng/ml, 24 h
Method: as §2
(§3) Human IL-6 ELISA kit (BD Biosciences, San Jose, CA, United States) was used to confirm the inhibitory effect of selected compounds on IL-6 production. MonoMac-6 cells were plated in 96-well plates at a density of 2 × 10^5 cells/well in culture medium supplemented with 3% (v/v) endotoxin-free FBS. Cells were pretreated with test compound or DMSO (1% final concentration) for 30 min, followed by addition of 250 ng/ml LPS for 24 h. IC50 values for IL-6 production were calculated by plotting the percentage inhibition against the logarithm of inhibitor concentration (at least five points). Multiplex human cytokine ELISA kit from Anogen (Mississauga, ON, Canada) was used to evaluate various cytokines (IL-1α, IL-1β, IL-6, GM-CSF, MCP-1, IFNγ, and TNF) in the supernatants of MonoMac-6 cells.

[6] = Solubility in DMSO for the binding affinity assay; type: physicochemical; details: insufficiently soluble in DMSO for the binding affinity assay
From the text: TABLE 1 Binding affinity (Kd) of compounds 1a-o and their inhibitory effect on LPS-induced NF-κB/AP-1 transcriptional activity in THP-1Blue cells and IL-6 production in MonoMac-6 cells. | column: Binding affinity / JNK1

[7] = test system: c-Jun (Ser63) phosphorylation in MonoMac-6 cells; experiment: LPS-induced c-Jun (Ser63) phosphorylation, Western blotting; type: cell-based, human; details: 30 min pretreatment, LPS 250 ng/ml 30 min, phospho-c-Jun/total c-Jun
Method: MonoMac-6 monocytic cells (10^7 cells) were incubated with different concentrations of compound 1j (final DMSO concentration of 0.5%) for 30 min at 37°C and then treated with LPS (250 ng/ml) or buffer for another 30 min at 37°C. Cells were washed twice with ice-cold phosphate buffer solution (pH 7.4), and cell lysates were prepared using lysis buffer (Cell Signaling Technology, Danvers, MA, United States). Cell lysates were separated on ExpressPlus 10% PAGE Gels (GenScript, Piscataway, NJ, United States) using TRIS-MOPS running buffer and transferred to nitrocellulose membranes. The blots were blocked overnight at 4°C in TRIS buffer (pH 7.4) + 0.1% Tween-20 (TBST) + 2.5% bovine serum albumin and probed with antibodies against phospho-c-Jun (Ser63) (Cell Signaling Technology), followed by horseradish peroxidase-conjugated secondary antibody (Cell Signaling Technology), and the blots were developed using Super-Signal West Femto chemiluminescent substrate (Thermo Fisher Scientific) and visualized with a FluorChem FC2 imaging system (Alpha Innotech Corporation, San Leandro, CA, United States). For measurement of total c-Jun signal, we stripped and reprobed the same Western blots that were used for phospho-c-Jun blots. […] Quantitation of the luminescent signals were performed using AlphaView software.

[8] = test system: proinflammatory cytokine production in MonoMac-6 cells; experiment: Multiplex human cytokine ELISA, LPS-stimulated MonoMac-6 cells; type: cell-based; details: 10 μM, LPS 250 ng/ml 24 h
Method: as §3

[9] = test system: NF-κB/AP-1 transcriptional activity in THP-1Blue cells; set-up: method as in Schepetkin et al., 2019; details: LPS-stimulated; ref Schepetkin et al., 2019; cited from earlier work
[10] = test system: IL-6 production in MonoMac-6 cells; set-up: method as in Schepetkin et al., 2019; details: LPS-stimulated; ref Schepetkin et al., 2019; cited from earlier work

T1 sequence (P45983 whole entry): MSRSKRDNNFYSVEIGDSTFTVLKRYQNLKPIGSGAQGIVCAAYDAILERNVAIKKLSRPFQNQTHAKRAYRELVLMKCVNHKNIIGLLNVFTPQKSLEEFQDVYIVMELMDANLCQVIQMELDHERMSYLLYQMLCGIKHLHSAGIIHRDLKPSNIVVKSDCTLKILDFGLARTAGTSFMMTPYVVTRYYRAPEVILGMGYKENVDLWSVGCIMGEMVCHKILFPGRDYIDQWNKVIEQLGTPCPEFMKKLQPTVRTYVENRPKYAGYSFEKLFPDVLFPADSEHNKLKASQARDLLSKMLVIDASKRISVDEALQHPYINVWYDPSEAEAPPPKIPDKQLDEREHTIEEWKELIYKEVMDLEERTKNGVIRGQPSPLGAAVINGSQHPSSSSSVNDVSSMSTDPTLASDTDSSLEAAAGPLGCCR

Row | SMILES | Kd [1] | Kd [2] | Kd [3] | IC50 [4] | IC50 [5] | melting point | other results
1 | CON=C1c2ccccc2-n2c1nc1ccccc1c2=O [Compound 1a, 6-(methoxyimino)indolo[2,1-b]quinazolin-12(6H)-one] | 3.1 ± 0.8 µM | 5.6 ± 0.4 µM | 1.4 ± 0.2 µM | 20.8 ± 5.3 µM | 23.5 ± 1.8 µM | 218 °C | 
2 | CCON=C1c2ccccc2-n2c1nc1ccccc1c2=O [Compound 1b, 6-(ethoxyimino)indolo[2,1-b]quinazolin-12(6H)-one] | 3.2 ± 1.2 µM | 5.4 ± 0.6 µM | 1.2 ± 0.4 µM | ≥ 50 µM | ≥ 50 µM | 117 °C | 
3 | C=CCON=C1c2ccccc2-n2c1nc1ccccc1c2=O [Compound 1c, 6-((allyloxy)imino)indolo[2,1-b]quinazolin-12(6H)-one] | 3.6 ± 0.7 µM | 4.1 ± 0.1 µM | 0.85 ± 0.01 µM | 18.9 ± 1.8 µM | ≥ 50 µM | 163 °C | 
4 | CC(C)(C)ON=C1c2ccccc2-n2c1nc1ccccc1c2=O [Compound 1d, 6-(tert-butoxyimino)indolo[2,1-b]quinazolin-12(6H)-one] | 9.3 ± 0.5 µM | 12 ± 1.4 µM | 2.3 ± 0.3 µM | ≥ 50 µM | ≥ 50 µM | 229 °C | 
5 | N#CCON=C1c2ccccc2-n2c1nc1ccccc1c2=O [Compound 1e, 2-(((12-oxoindolo[2,1-b]quinazolin-6(12H)-ylidene)amino)oxy)acetonitrile] | 19.5 ± 3.5 µM | 17.5 ± 2.1 µM | 1.5 ± 0.6 µM | ≥ 50 µM | ≥ 50 µM | 224 °C | JNK-3 selectivity over JNK-1 ([3]; ratio of binding affinities): > 10 fold; JNK-3 selectivity over JNK-2 ([3]; ratio of binding affinities): > 10 fold
6 | O=c1c2ccccc2nc2n1-c1ccccc1C2=NOCc1ccccc1 [Compound 1f, 6-((benzyloxy)imino)indolo[2,1-b]quinazolin-12(6H)-one] |  |  | ≥ 30 µM | ≥ 50 µM | ≥ 50 µM | 206 °C | 
7 | O=c1c2ccccc2nc2n1-c1ccccc1C2=NOCc1c(F)c(F)c(F)c(F)c1F [Compound 1g, 6-(((pentafluorophenyl)methoxy)imino)indolo[2,1-b]quinazolin-12(6H)-one] |  |  | ≥ 30 µM | ≥ 50 µM | ≥ 50 µM | 183 °C | 
8 | O=c1c2ccccc2nc2n1-c1ccccc1C2=NOCc1ccc([N+](=O)[O-])cc1 [Compound 1h, 6-(((4-nitrobenzyl)oxy)imino)indolo[2,1-b]quinazolin-12(6H)-one] |  |  |  | ≥ 50 µM | ≥ 50 µM | 219 °C | Solubility [6]: Poor solubility ^b
9 | O=c1c2ccccc2nc2n1-c1ccccc1C2=NOCc1ccccn1 [Compound 1i, 6-((pyridin-2-ylmethoxy)imino)indolo[2,1-b]quinazolin-12(6H)-one] | 4 ± 0.9 µM | 3.9 ± 0.4 µM | 1.5 ± 0.1 µM | ≥ 50 µM | ≥ 50 µM | 199 to 200 °C | 
10 | CC(=O)ON=C1c2ccccc2-n2c1nc1ccccc1c2=O [Compound 1j, 6-(acetoxyimino)indolo[2,1-b]quinazolin-12(6H)-one] | 0.34 ± 0.04 µM | 0.49 ± 0.01 µM | 0.18 ± 0.04 µM | 0.8 ± 0.2 µM | 1.7 ± 0.1 µM | 262 °C | Inhibition of LPS-induced c-Jun (S63) phosphorylation [7]: dose-dependent inhibition; Secretion of GM-CSF ([8]; vs DMSO-treated control): completely inhibited; Secretion of IL-1α ([8]; vs DMSO-treated control): completely inhibited; Secretion of IL-1β ([8]; vs DMSO-treated control): completely inhibited; Secretion of IL-6 ([8]; vs DMSO-treated control): completely inhibited; Secretion of MCP-1 ([8]; vs DMSO-treated control): completely inhibited; Secretion of TNF ([8]; vs DMSO-treated control): completely inhibited; Effect on IFN-γ production ([8]; low production of this cytokine after LPS): inconclusive
11 | NN=C1c2ccccc2-n2c1nc1ccccc1c2=O [Compound 1m, 6-hydrazonoindolo[2,1-b]quinazolin-12(6H)-one] |  |  |  | ≥ 50 µM | ≥ 50 µM | > 400 °C (dec.) | Solubility [6]: Poor solubility ^b
12 | O=c1c2ccccc2nc2n1-c1ccccc1C2=NNc1ccccc1 [Compound 1n, 6-(2-phenylhydrazono)indolo[2,1-b]quinazolin-12(6H)-one] |  |  |  | ≥ 50 µM | ≥ 50 µM | 223 °C | Solubility [6]: Poor solubility ^b
13 | NC(=O)NN=C1c2ccccc2-n2c1nc1ccccc1c2=O [Compound 1o, 2-(12-oxoindolo[2,1-b]quinazolin-6(12H)-ylidene)hydrazinecarboxamide] |  |  |  | 3.3 ± 0.1 µM | 6.6 ± 1.2 µM | 266 °C | 
14 | O=c1c2ccccc2nc2n1-c1ccccc1/C2=N\O [TRYP-Ox] |  |  |  |  |  |  | IC50 [9]: 3.8 ± 1.1 µM; IC50 [10]: 3.2 ± 1.2 µM

Source: article PMC9510750, “Design, synthesis and biological evaluation of novel O-substituted tryptanthrin oxime derivatives as c-Jun N-terminal kinase inhibitors” (Frontiers in Pharmacology, 2022)
